Data published in patent US20100152239A1, “Method to Improve Survival in Sepsis” (priority 2008, published 2010).

Legend:
macrophages = settings: via alpha7nAChR; cited from earlier work
serum TNF and HMGB1 = settings: cited from earlier work
[1] = mice; cited from earlier work
[2] = tested on: RAW264.7 macrophage cells; settings: via alpha7nAchR; cited from earlier work
TNF [3] = assay: TNF protein in splenectomized hemorrhagic animals after resuscitation; type: in vivo, rat; settings: n=4/group
Procedure: (§1) Activation Blood was collected at 2 hrs after the hemorrhagic shock and analyzed using the i-Stat blood analyzer (Abbot Laboratories, IL, USA). Lung function was assessed by analyzing blood gases including total and partial carbon dioxide (TCO2, PCO2), bicarbonate (HCO3), pH and the base excess of extracellular fluid (BEecf). The organ function tests include […] sodium, potassium, chloride, the anion gap (AnGap), total plasma protein (TP), and blood urea nitrogen (BUN). Blood chemistry also included glucose, hematocrit and hemoglobin. The systemic inflammatory status was assessed by analyzing critical pro-inflammatory cytokines and cardiodepressant factors such as TNF and HMGB1. The major organs were collected and immediately sliced and washed with PBS at 4° C. TNF concentrations in serum and major organs were determined by ELISA (R&D Systems, Inc., Minneapolis, Minn., USA). HMGB1 was analyzed by Western blot as previously described.

hemorrhagic rats = assay: Survival after severe hemorrhage and resuscitation; type: in vivo, rat; settings: for animals with hemorrhagic shock protected: n=7/group
Procedure: Adult male Sprague-Dawley (350-450 g) rats were purchased from Harlen Sprague-Dawley (Indianapolis, Ind., USA) and allowed to acclimate for 7 days, housed at 25° C. on a 12-hr light/dark cycle. Animals were randomly grouped and assigned to a specific experiment. Investigators were blinded to the experimental treatment.
Animals were anaesthetized by inhalation of isoflurane (5% induction, 2% maintenance; Minrad, Buffalo, N.Y., USA) and subjected to surgical catheter placement into the femoral artery and vein under sterile conditions. To avoid blood clot and maintain catheter patency, the catheters were flushed with 1% heparin solution immediately before placement. Heparin was not used in vivo during the experiment or observation period in agreement with previous studies. After the catheter implantation, the blood pressure and the heart rate were recorded for 15 min. to establish a physiological baseline prior the hemorrhage procedure. Then, the animals were subjected to hemorrhage over 15 min. to reach a mean arterial blood pressure (MAP) of 35-40 mmHg and subsequent maintenance of this blood pressure by continued blood withdrawal for another 15 min. After the shock phase, resuscitated animals received specific resuscitation treatment over 40 min. with a total volume of 15 ml/kg (equivalent to 1000 ml of Hextend in a 70 kg person). The femoral artery was catheterized with a catheter R-FAC (Braintree Scientific, Inc., Braintree, Mass., USA) previously flushed with 1% heparin in 0.9% saline to allow spontaneous bleeding due to arterial blood pressure. Shed blood was considered lost and it was not reinfused. After resuscitation treatment, the animals were kept anesthetized for 2 hrs to record heart rate, blood pressure and blood chemistry. The control animals were also anesthetized with isoflurane for blood collection. Then, the anesthesia was stopped and the animals were allowed to recover from anesthesia and housed individually in regular cages. Splenectomy was performed as we described previously. Briefly, the spleen was identified following a midline laparotomy incision, and removed after appropriate blood vessel ligation. Sham animals underwent laparotomy without splenectomy.
All data in the figures and text are expressed as mean±standard deviation (SD). Statistical analyzes were performed using the one-way ANOVA with multiple pairwise comparisons with the Bonferroni's adjustment for multiple hypothesis testing. The Student's t-test was used to compare mean values between two experimental groups. Statistical analyzes of survival were determined using the logrank test. P-values<0.05 were considered statistically significant.
Adult male Sprague-Dawley hemorrhagic rats received no resuscitation (NR) or were resuscitated with 15 ml/kg (i.v.) Hextend (HEXT) or Hextend supplemented with GTS (GTS). (A) Arterial blood pressure was recorded during hemorrhage and the resuscitation treatment. (B) All animals without resuscitation treatment (NR; n=10) died within the first 5 hrs after hemorrhage with an average time of death of 161±26 min. Resuscitation with Hextend allowed the animals to restore normal blood pressure and tissue perfusion, and yet 90% of the animals died (n=9). […] P<0.05 survival logrank test versus NR (*) or HXT(#).

RelB NF-κB = RelB NF-κB binding to DNA in spleen (TransAM DNA-Binding ELISA); type: in vivo, rat; settings: nuclear extracts at 2 hrs after hemorrhage
[4] = Arterial blood pressure during hemorrhage and resuscitation; type: in vivo, rat; settings: 15 ml/kg resuscitation fluid i.v.
Procedure: Animals were anaesthetized by inhalation of isoflurane (5% induction, 2% maintenance; Minrad, Buffalo, N.Y., USA) and subjected to surgical catheter placement into the femoral artery and vein under sterile conditions. To avoid blood clot and maintain catheter patency, the catheters were flushed with 1% heparin solution immediately before placement. […] After the catheter implantation, the blood pressure and the heart rate were recorded for 15 min. to establish a physiological baseline prior the hemorrhage procedure. Then, the animals were subjected to hemorrhage over 15 min. to reach a mean arterial blood pressure (MAP) of 35-40 mmHg and subsequent maintenance of this blood pressure by continued blood withdrawal for another 15 min. After the shock phase, resuscitated animals received specific resuscitation treatment over 40 min. with a total volume of 15 ml/kg (equivalent to 1000 ml of Hextend in a 70 kg person). The femoral artery was catheterized with a catheter R-FAC (Braintree Scientific, Inc., Braintree, Mass., USA) previously flushed with 1% heparin in 0.9% saline to allow spontaneous bleeding due to arterial blood pressure. Shed blood was considered lost and it was not reinfused. After resuscitation treatment, the animals were kept anesthetized for 2 hrs to record heart rate, blood pressure and blood chemistry. […]

[5] = rats; cited from earlier work
[6] = tested on: poly(ADP-ribose) polymerase (PARP); assay: PARP activity in organ homogenates; type: in vivo, rat; settings: liver homogenates; n=4/group
Procedure: (§2) Homogenates were normalized by protein concentration and the activation of IκBα was analyzed by Western blot by using anti-IκBα polyclonal antibody ab7217 and anti-phosphorylated-IκBα(phospho S32+S36) monoclonal antibody [clone39A1431] ab12135 (Abcam; Cambridge, Mass., USA). Transcriptional activity of splenic p65RelA was analyzed by TransAM DNABinding ELISA (Active Motif; Cambridge, Mass., USA) following manufacturer's instructions. […] Protein levels were measured using the Bradford method (BIO-RAD) and PARP activity was normalized to protein content.

TNF [7] = assay: TNF protein in serum and organs by ELISA during resuscitation; type: in vivo, rat; settings: non-splenectomized animals; 2 hrs; n=4/group
Procedure: as §1

p65RelA NF-κB = p65RelA NF-κB binding to DNA in organs (TransAM DNA-Binding ELISA); type: in vivo, rat; settings: nuclear extracts at 2 hrs after hemorrhage
Procedure: as §2

HMGB1 = assay: Serum HMGB1 by Western blot during resuscitation; type: in vivo, rat; settings: 2 hrs after hemorrhage; n=4/group
Procedure: as §1

[8] = Blood chemistry during resuscitation (i-Stat); type: in vivo, rat; settings: blood at 2 hrs after hemorrhage; n=4/group
Procedure: as §1

mRNA TNF = assay: TNF transcription in heart and spleen by real-time PCR; type: in vivo, rat; settings: 2 hrs after hemorrhage; as compared with Hextend; n=4/group
Procedure: We analyzed mRNA TNF levels in the heart and the spleen by real-time PCR (FIG. 5, GTS inhibits TNF transcription in the spleen during resuscitation. Organs from control or hemorrhagic animals without or with resuscitation were analyzed at 2 hrs after hemorrhage. TNF transcription in the (A) heart and (B) spleen was analyzed by real-time PCR. * represents P<0.05 versus HXT (n=4/group; one-way ANOVA with Bonferroni's corrections)). Hemorrhage increased mRNA TNF levels in both the heart and the spleen as analyzed by real-time PCR. […] In order to determine whether the inhibition of splenic TNF is sufficient to account for the anti-inflammatory potential of GTS, we analyzed the pharmacological implications of the spleen during resuscitation.

CN1CCCC1c1cccnc1 (stereo not drawn) [nicotine]
production of TNF and HMGB1 in macrophages (macrophages): inhibits TNF and HMGB1 production | survival (serum TNF and HMGB1; experimental models of systemic inflammation): improves survival | serum TNF and HMGB1 levels (serum TNF and HMGB1; in vivo treatment, experimental models of systemic inflammation): inhibits serum TNF and HMGB1 levels | systemic TNF levels in sham versus splenectomized animals (serum TNF and HMGB1; previous studies): attenuated systemic TNF levels in sham but not in splenectomized animals | effect on locomotor activity [1]: biphasic effect | endotoxin-induced p65NF-κB activation [2]: inhibits endotoxininduced p65NF-κB activation

COc1ccc(/C=C2\CCCN=C2c2cccnc2)c(OC)c1 [GTS, 3-[(2,4-dimethoxy)benzylidene]-anabaseine]
TNF levels in serum, lung and heart of splenectomized animals (TNF [3]): significantly inhibited serum TNF levels as well as TNF levels in the lung and the heart | systemic (serum) TNF levels in splenectomized animals (TNF [3]): significantly inhibited systemic TNF levels | animals with hemorrhagic shock protected (hemorrhagic rats; 0.02 mg/kg GTS in Hextend): 17% | protection as compared with Hextend solution alone (logrank) (hemorrhagic rats; 0.2 mg/kg GTS): statistically significant protection | animals with hemorrhagic shock protected (hemorrhagic rats; 0.2 mg/kg GTS in Hextend): 67% | protection as compared with Hextend solution alone (logrank) (hemorrhagic rats; 2 mg/kg GTS): statistically significant protection | survival from lethal hemorrhage (hemorrhagic rats; Hextend supplemented with 350 uM GTS, 15 ml/kg i.v., n=7, followed up to 7 days): rescued all the animals from lethal hemorrhage | RelB NF-κB activation in spleen (RelB NF-κB): not affected | blood pressure after resuscitation [4]: re-established blood pressure | effect on dopamine turnover [5]: no effect | hepatic PARP activity [6]: inhibited PARP activation | TNF levels in organs (lung, liver, heart, spleen) (TNF [7]): blunted TNF levels in all of the organs | serum (circulating) TNF levels (TNF [7]): circulating TNF levels similar to those in control mice | p65RelA NF-κB activation in organs (heart, liver, spleen) (p65RelA NF-κB): inhibited p65RelA NF-κB in most of the organs but not in the heart | effect on locomotor activity [1]: no effect | serum HMGB1 levels (HMGB1): no serum HMGB1 was found | AnGap, bicarbonate and chloride [8]: re-established normal values of AnGap and bicarbonate but not hypochloremia | hyperglycemic response (glucose) [8]: significantly prevented | metabolic acidosis (pH) [8]: prevented metabolic acidosis | uremia (blood urea nitrogen) [8]: did not prevent uremia | mRNA TNF levels in heart and spleen (mRNA TNF): decreased mRNA TNF levels in the spleen but not in the heart
